Reference: article PMC12478189, “Structurally diverse viral inhibitors converge on a shared mechanism to stall the antigen transporter TAP” (Proceedings of the National Academy of Sciences of the …, 2025)

Target: T1, TAP/hUS6 complex (Homo sapiens, UniProt Q03518+Q03519)
T1 construct: gene TAP1; TAP1 C-terminal SpyCatcher, TAP2, hUS6 with SpyTag at its cytoplasmic terminus (covalent tether), GFP tag cleaved; HEK293S GnTI-; in GDN; hUS6 residues 102-136 resolved; with Unique short US6 glycoprotein
T1 sequence (P14334 20-183): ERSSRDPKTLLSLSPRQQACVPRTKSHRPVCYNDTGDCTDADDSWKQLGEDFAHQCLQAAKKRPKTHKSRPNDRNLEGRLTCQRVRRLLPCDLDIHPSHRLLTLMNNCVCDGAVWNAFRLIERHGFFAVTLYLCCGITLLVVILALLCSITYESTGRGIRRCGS
T1 sequence (Q03518 whole entry, the tested form may be a part): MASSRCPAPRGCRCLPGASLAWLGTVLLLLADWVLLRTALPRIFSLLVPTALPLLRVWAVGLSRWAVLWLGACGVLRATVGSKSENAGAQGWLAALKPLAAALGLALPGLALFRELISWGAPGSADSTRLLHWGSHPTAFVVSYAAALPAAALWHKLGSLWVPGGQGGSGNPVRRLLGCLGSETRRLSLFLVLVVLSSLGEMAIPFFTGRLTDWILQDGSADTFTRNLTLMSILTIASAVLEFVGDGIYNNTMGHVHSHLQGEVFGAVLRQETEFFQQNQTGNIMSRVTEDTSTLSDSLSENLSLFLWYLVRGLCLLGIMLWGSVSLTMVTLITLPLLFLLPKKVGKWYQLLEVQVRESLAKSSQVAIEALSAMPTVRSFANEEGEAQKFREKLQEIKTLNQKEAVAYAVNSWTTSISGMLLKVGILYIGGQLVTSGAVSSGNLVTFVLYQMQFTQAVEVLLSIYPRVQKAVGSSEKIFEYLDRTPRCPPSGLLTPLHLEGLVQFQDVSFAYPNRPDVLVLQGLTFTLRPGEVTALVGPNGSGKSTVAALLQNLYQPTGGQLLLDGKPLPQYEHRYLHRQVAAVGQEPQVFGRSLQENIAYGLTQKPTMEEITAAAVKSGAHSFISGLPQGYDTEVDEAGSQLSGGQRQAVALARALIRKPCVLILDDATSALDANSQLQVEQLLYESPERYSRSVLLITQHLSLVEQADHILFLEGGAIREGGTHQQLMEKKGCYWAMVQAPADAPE
T1 sequence (Q03519 whole entry, the tested form may be a part): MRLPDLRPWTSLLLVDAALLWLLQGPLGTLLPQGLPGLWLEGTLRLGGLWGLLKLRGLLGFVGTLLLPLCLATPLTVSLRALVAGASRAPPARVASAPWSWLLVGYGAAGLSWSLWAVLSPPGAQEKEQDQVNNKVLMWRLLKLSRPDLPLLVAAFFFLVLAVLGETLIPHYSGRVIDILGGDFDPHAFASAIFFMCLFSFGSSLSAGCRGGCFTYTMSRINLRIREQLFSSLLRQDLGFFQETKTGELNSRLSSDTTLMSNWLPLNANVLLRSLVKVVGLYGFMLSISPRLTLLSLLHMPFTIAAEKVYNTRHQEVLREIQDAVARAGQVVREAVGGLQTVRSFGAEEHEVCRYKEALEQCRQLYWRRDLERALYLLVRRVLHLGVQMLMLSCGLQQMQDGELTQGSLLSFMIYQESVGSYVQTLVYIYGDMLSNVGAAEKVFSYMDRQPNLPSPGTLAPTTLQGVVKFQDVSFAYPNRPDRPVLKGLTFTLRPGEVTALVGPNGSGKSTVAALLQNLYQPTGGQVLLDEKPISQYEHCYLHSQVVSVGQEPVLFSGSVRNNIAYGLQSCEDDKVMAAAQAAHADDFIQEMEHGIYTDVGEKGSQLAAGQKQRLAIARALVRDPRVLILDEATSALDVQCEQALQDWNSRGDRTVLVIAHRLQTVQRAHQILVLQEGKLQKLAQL
Assay: cryo-EM structure of the complex
Format: binding
Conditions: pH 6.5

SMILES	cryo-EM structure of the complex (10 mM ATP, ATP at the degenerate NBD site, outward-facing, NBD-dimerized)	cryo-EM structure of the complex (10 mM ATP added, ADP at the consensus NBD site, posthydrolytic state)
Nc1ncnc2c1ncn2[C@@H]1O[C@H](COP(=O)(O)OP(=O)(O)OP(=O)(O)O)[C@@H](O)[C@H]1O [ATP]	densities corresponding to ATP bound at the degenerate site and ADP at the consensus site	–
Nc1ncnc2c1ncn2[C@@H]1O[C@H](COP(=O)(O)OP(=O)(O)O)[C@@H](O)[C@H]1O [ADP]	–	densities corresponding to ATP bound at the degenerate site and ADP at the consensus site
